Measured values taken from PubChem BioAssay (NCI).
“And” between values parts separate entries of the source, which are not always exact repeats. Identical values can stand only once.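 96-well plates; 48 h exposure; 5 concentrations. Endpoints by linear interpolation between flanking doses. Not reached: highest tested concentration assigned. GI50 is the concentration that inhibits growth by half. TGI: total growth inhibition.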

How the values were obtained:
Test in all cases: inhibition of tumour cell growth, NCI panel, 48 h
DU-145 prostate = tested on: DU-145 prostate
HCT-116 colon = tested on: HCT-116 colon
HCT-15 colon = tested on: HCT-15 colon
IGROV1 ovarian = tested on: IGROV1 ovarian
MCF7 breast = tested on: MCF7 breast
NCI-H226 lung = tested on: NCI-H226 lung
OVCAR-3 ovarian = tested on: OVCAR-3 ovarian
KM12 colon = tested on: KM12 colon
RXF 393 renal = tested on: RXF 393 renal
SNB-75 CNS = tested on: SNB-75 CNS

Structure (SMILES) | TGI (DU-145 prostate) | TGI (HCT-116 colon) | TGI (HCT-15 colon) | TGI (IGROV1 ovarian) | TGI (MCF7 breast) | GI50 (NCI-H226 lung) | TGI (NCI-H226 lung) | TGI (OVCAR-3 ovarian) | TGI (KM12 colon) | TGI (RXF 393 renal) | TGI (SNB-75 CNS)
CN(C)CCCNc1c2ccccc2nc2cccc([N+](=O)[O-])c12 | 0.0131 µM | 0.0132 µM and 0.0316 µM | 0.00142 µM | 0.00491 µM | 0.00188 µM | 0.0196 µM | 0.0589 µM and 0.0601 µM | 0.0673 µM | – | – | –
CCCn1c(=O)c2ccccc2[n+]2c(-c3ccc([N+](=O)[O-])cc3)csc12 | > 100 µM | > 100 µM | > 100 µM | > 100 µM | > 100 µM | – | > 100 µM | – | 78.3 µM | 55.3 µM | 94.6 µM
N=S(=O)(c1ccccc1)c1ccccc1[N+](=O)[O-] (stereo not given) | – | > 100 µM | > 100 µM | > 100 µM | – | – | > 100 µM | > 100 µM | > 100 µM | > 100 µM | > 100 µM
CN(C)CCOC(=O)c1ccc(N)cc1 | > 100 µM | > 100 µM | > 100 µM | 74.9 µM | > 100 µM | – | 67.4 µM | > 100 µM | > 100 µM | > 100 µM | –
CC1CCc2c(sc3ncnc(N/N=C/c4ccc(Cl)c(Cl)c4)c23)C1 (stereo not given) | – | > 100 µM | > 100 µM | > 100 µM | – | – | 49.4 µM | 57.4 µM | – | 70.3 µM | 61.6 µM
Cn1c(-c2ccc[se]2)ccc1-c1ccc(CO)[se]1 | > 78 µM | > 100 µM | > 63.8 µM | – | > 100 µM | – | 0.884 µM | – | > 100 µM | 6.26 µM | > 79.9 µM
Cc1ccc(S(=O)(=O)NC(=O)NCCC(=O)O)cc1 | > 100 µM | > 100 µM | > 100 µM | > 100 µM | > 100 µM | – | – | – | > 100 µM | > 100 µM | > 100 µM
CC(C)(C)n1c(=O)n(C(=O)C(Cl)(Cl)Cl)n(C(=O)C(Cl)(Cl)Cl)c1=O | > 100 µM | > 100 µM | > 100 µM | > 100 µM | > 100 µM | – | > 100 µM | > 100 µM | > 100 µM | > 100 µM | –
CO/C(=N\N=C\c1ccc(Cl)cc1Cl)c1ccncc1 | > 10 µM | > 10 µM | > 10 µM | – | > 10 µM | – | > 10 µM | > 10 µM | > 10 µM | > 10 µM | –
O=C(NC1(C(=O)NNc2nnc(-c3ccccc3)c(-c3ccccc3)n2)C(c2ccccc2)C(c2ccccc2)=NN1c1ccccc1)c1ccccc1 (stereo not given) | > 100 µM | > 100 µM | > 100 µM | – | – | – | > 100 µM | > 100 µM | > 100 µM | > 100 µM | > 100 µM
COc1ccc(-c2nc(-c3cc4ccccc4oc3=O)cs2)cc1 | > 100 µM | > 100 µM | > 100 µM | > 100 µM | > 100 µM | – | > 100 µM | – | > 100 µM | > 100 µM | > 100 µM
O=C(NNc1cn[nH]c(=O)c1Cl)/C(=C/c1ccc2c(c1)OCO2)NC(=O)c1ccccc1 | > 100 µM | > 100 µM | > 100 µM | > 100 µM | > 100 µM | – | > 100 µM | > 100 µM | > 100 µM | – | 86.2 µM
